Laboratory results from patent US4990531A, “Derivatives of 1-arylsulphonyl-2-pyrrolidinone and their use as medicaments” (Roussel Uclaf, priority 1988, dated 1991).
Where two headings read alike, the source gives them in different places.

Legend:
[1] = molecular target: adrenoreceptor alpha 2; experiment: Affinity for other receptors: adrenoreceptor alpha 2; assay type: binding; conditions: negligible affinity
[2] = tested on: contractions induced by histamine, isolated ileum; experiment: Antagonism of histamine-induced contractions, isolated guinea-pig ileum; conditions: histamine 1×10^-5 M; contact time one minute; read-out: Antagonism with various agents (IC50): Istam.
Description: The interaction of the compounds with various receptors was evaluated on the isolated ileum of a guinea-pig according to the following method.
Segments of the ileum of guinea-pigs of 2.5-3 cm were washed and immediately suspended in a bath containing 10 ml of Tyrode's solution at 37° C. and aerated with a mixture of oxygen (95%) and carbon dioxide (5%). After a stabilization period of at least 30 minutes contractions were recorded, while the preparation was maintained under constant tension of 1 g, by means of a detector connected to a polygraph. The agonistic action was evaluated by leaving the compound in contact with the isolated tissue for a period necessary to show the maximum […]; then it was washed with the Tyrode's solution. The following dose was added only after the preparation had returned to its base line. Arecoline was used as a reference product. The antagonist action was evaluated on the contractions induced by acetylcholine (1×10^-6 M), histamine (1×10^-5 M), serotonine (1×10^-6 M) and barium chloride (2×10^-4 M). […] The contact time before adding the agonist was one minute.
For each compound the does response curves are obtained with 4 to 6 different concentrations and 3 to 5 independent tests. The agonist activity is expressed by pD2 (negative logarithm of the dose which produces 50% of the maximum effect).

[3] = molecular target: opiated receptor mu (Homo sapiens, UniProt P35372); experiment: Affinity for other receptors: opiated receptor mu; assay type: binding; conditions: negligible affinity
[4] = molecular target: Muscarine receptor 2; experiment: Bonding with cerebral receptors: muscarine receptor 2 (3H quinuclidinyl benzylate, rat brain); assay type: binding; conditions: 0.3 nM 3H quinuclidinyl benzylate, 60 min, 25° C., pH 7.5; read-out: Affinity for muscarine receptor M2 (/3H/Quinuclidinyl benzylate), IC50
Description: The preparation is made from the brains of a male rat weighing 150 to 200 g (Iffa Credo).
The brains are pulverized (Teflon-glass) in a 0.32M solution of sucrose. The homogenate is centrifuged for 10 minutes at 1000 g (0°-4° C.).
The supernatant obtained is recovered and centrifuged at 30,000 g for 15 minutes (0°-4° C.).
The deposit is put in suspension in a buffer Tris 50 mM pH 7.5 and the new homogenate is centrifuged again at 30,000 g for 15 minutes (0°-4° C.).
The deposits after elimination of the supernatant, can be used straight-away or kept for up to one month at -30° C.
For one experiment the deposits are first of all thawed out, if necessary, to ambient temperature and put in suspension, using a Dounce, in a buffer Tris 50 mM pH 7.5. Aliquots of 2 ml are incubated for 60 minutes at 25° C. in the presence of 0.3 nM of ^3 H quinuclidinyl benzylate either alone, or with the product under test, or with benzatropine at 10^-5 M in order to determine the non-specific radioactivity fixed.
At the end of the incubation the incubate tubes are cooled to 4° C. and filtered rapidly on Whatman GF/C filters. The filters are rinsed with 3×5 ml of buffer Tris 50 mM pH 7.5, then measurements are made by liquid scintillation [Henry I Yamamura, Solomon H. Snyder, Proc. Nat. Acad. Sc. (1974) 71 No. 5, 1725-1729).

[5] = tested on: cholinomimetic effects induced by carbachol; experiment: In vivo anticholinergic action: inhibition of carbachol-induced cholinomimetic effects; parameters: species or system CD1 male mice; conditions: i.p.; for ED50 / ED (1 degree C): Mus musculus, ip, 0.5 h, carbachol 1 mg/kg s.c. 30 min later; for ED (1 degree C): rectal temperature, read-out: Body Temperature: dose able to increase by 1° C. the hypothermic effect induced by carbachol; for selective anticholinergic action in vivo: mice, in words
Description: The anticholinergic activity of the compounds was determined by evaluating the capacity to inhibit cholinomimetic effects induced by carbachol. Atropine sulphate was used as reference product.
CD1 male mice are used weighing 25 to 30 g. They are divided into groups of 5 animals and treated by intraperitoneal route, in scaled doses, with the products or with 0.25% of Methocel for the controls. 10 animals are used for each dose. 30 minutes after the administration of the compounds, the mice are subcutaneously injected with 1 mg/kg of carbachol, dissolved in physiological serum.
Each animal was examined 30 minutes after the injection of carbachol to evaluate the presence of diarrhea, salivation and watering of the eyes; the body temperature was also measured using a thermocouple inserted 1.5 cm into the rectum.
For each compound, there was determined, and recorded in the following table, the dose able to inhibit, in 50% of the animals, the appearance of peripheral cholinomimetic symptoms induced by carbachol, and to increase by 1° C. the hypothermic effect induced by the cholinergic agent.

[6] = read-out: dose able to inhibit, in 50% of the animals, Diarrhea
[7] = read-out: dose able to inhibit, in 50% of the animals, Salivation
[8] = read-out: dose able to inhibit, in 50% of the animals, Watering of Eyes

Sequence of opiated receptor mu (P35372 whole entry): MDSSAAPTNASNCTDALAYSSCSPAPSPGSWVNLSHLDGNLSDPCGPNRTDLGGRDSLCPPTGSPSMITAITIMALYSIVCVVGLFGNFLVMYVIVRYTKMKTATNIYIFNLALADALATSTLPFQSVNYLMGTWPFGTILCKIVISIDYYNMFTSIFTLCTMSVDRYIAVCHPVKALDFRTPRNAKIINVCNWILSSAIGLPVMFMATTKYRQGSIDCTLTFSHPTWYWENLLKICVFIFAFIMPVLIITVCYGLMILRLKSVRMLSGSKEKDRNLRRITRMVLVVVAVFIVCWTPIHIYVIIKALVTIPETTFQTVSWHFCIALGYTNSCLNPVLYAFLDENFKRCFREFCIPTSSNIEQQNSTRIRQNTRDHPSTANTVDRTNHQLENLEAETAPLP

SMILES	IC50 [1] [µM]	IC50 [2] [µM]	IC50 [3] [µM]	IC50 [4] [µM]	ED50 [5, 6] [mg/kg]	ED50 [5, 7] [mg/kg]	ED50 [5, 8] [mg/kg]	ED (1 degree C) [5] [mg/kg]	selective anticholinergic action in vivo [5]
CCN(CC)c1ccc(S(=O)(=O)N2CCCC2=O)cc1 [Example 2, 1-[4-(diethylamino)benzenesulphonyl]-2-pyrrolidinone]	5 to 10	> 100	5 to 10	1.3	7	> 50	> 50	> 50	selective anticholinergic action on the intestinal musculature
CC(C)(C)c1ccc(S(=O)(=O)N2CCCC2=O)cc1 [Example 1, 1-(4-tert-butylbenzenesulphonyl)-2-pyrrolidinone]	5 to 10	> 100	5 to 10	1.3	7	10	> 50	50	selective anticholinergic action on the intestinal musculature
